Where two headings read alike, the source gives them in different places.
Tests used:
[1] = molecular target: phosphorylated MEK1 (Homo sapiens, UniProt Q02750); test: MEK1 binding assay (HTRF, tracer displacement); conditions: for inhibition at 2 µM: read-out: % binding (2 µM); for inhibition at 20 µM: read-out: % binding (20 µM)
Experimental: The homogeneous time resolved fluorescence (HTRF) assay was performed on a Proxiplate-384 F plus solid back plate (Perkin Elmer, Waltham, MA. USA) with 5 nM GST tagged phosphorylated MEK1 (GST-MEK1), 2 nM europium-labeled anti-GST antibody (Eu-anti-GST), 20 nM kinase tracer 236 and test compound at a variety of concentrations. In the reaction mixture, GST-MEK1 forms a complex with the Eu-anti-GST and the tracer. Excitation of europium (the donor) using a 340-nm excitation filter results in energy transfer to the fluorophore of the tracer. This energy transfer is detected by an increase in the fluorescence emission of the tracer at 665 nm and a decrease in the fluorescence emission of europium at 615 nm. The FRET ratio was calculated by dividing the emission signal at 665 nm by the emission signal at 615 nm. A competitor compound such as a MEK inhibitor replaces the tracer from the complex and decreases the FRET ratio accordingly. The plate was incubated in dark at room temperature for 30 min before measuring the fluorescent emission of each well at 665 and 615 nm using a 340-nm excitation filter, 100-µs delay time, and 200-µs integration time, on a PHERAStar plate reader (BMG Labtech, Durham, NC, USA). […] Data shown as %Inhibition normalized to AZD6244 at 100 µM.

phosphorylated MEK1, sequence (Q02750 whole entry): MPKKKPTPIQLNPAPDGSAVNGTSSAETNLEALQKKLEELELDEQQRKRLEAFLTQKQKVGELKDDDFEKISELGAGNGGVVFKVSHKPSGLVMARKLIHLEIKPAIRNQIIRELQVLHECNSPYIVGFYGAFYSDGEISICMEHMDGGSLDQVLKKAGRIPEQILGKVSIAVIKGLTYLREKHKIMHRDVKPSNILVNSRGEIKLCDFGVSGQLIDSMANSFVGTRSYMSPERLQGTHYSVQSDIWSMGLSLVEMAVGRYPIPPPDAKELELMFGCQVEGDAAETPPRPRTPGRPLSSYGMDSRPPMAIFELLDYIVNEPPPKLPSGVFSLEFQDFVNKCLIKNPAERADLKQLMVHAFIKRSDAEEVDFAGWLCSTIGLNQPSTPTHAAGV

Compound	inhibition at 2 µM [1] [%]	inhibition at 20 µM [1] [%]	melting point [°C]	binding affinity (in words) [1]	IC50 ([1]; HTRF binding to GST tagged phosphorylated MEK1, read-out: IC50) [nM]	IC50 [1] [nM]	inhibition at 100 µM [1] [%]
CCCc1c(Cc2ccc(F)cc2)c(=O)oc2cc(OS(=O)(=O)c3ccc(C)cc3)ccc12 [Compound 82, 3-(4-Fluorobenzyl)-2-oxo-4-propyl-2H-chromen-7-yl 4-methylbenzenesulfonate]	37.5	45.9	–	–	–	–	–
CCN(CC)C(=O)Oc1ccc2c(C)c(Cc3ccc(F)cc3)c(=O)oc2c1 [Compound 24, 3-(4-Fluorobenzyl)-4-methyl-2-oxo-2H-chromen-7-yl diethylcarbamate]	22.3	27.8	101 to 102	–	–	–	–
CCc1c(Cc2ccc(F)cc2)c(=O)oc2cc(OC(C)=O)ccc12 [Compound 32, 4-Ethyl-3-(4-fluorobenzyl)-2-oxo-2H-chromen-7-yl acetate]	94.6	101	122 to 123	active	91.2	–	–
CCCc1c(Cc2ccccc2)c(=O)oc2cc(OC(=O)N(C)C)ccc12 [Compound 16, 3-Benzyl-2-oxo-4-propyl-2H-chromen-7-yl dimethylcarbamate]	70.9	95.4	117 to 118	–	–	1040	–
CC(=O)Oc1cc2oc(=O)c(Cc3ccccc3)c(C)c2cc1Cl [Compound 27, 3-Benzyl-6-chloro-4-methyl-2-oxo-2H-chromen-7-yl acetate]	30.6	30.8	190	–	–	–	–
CCCC(=O)Oc1ccc2c(CCC)c(Cc3ccccc3)c(=O)oc2c1 [Compound 44, 3-Benzyl-2-oxo-4-propyl-2H-chromen-7-yl butyrate]	14	38.9	105 to 106	–	–	–	–
CCCc1c(Cc2ccccc2)c(=O)oc2cc(OC(=O)CC)ccc12 [Compound 37, 3-Benzyl-2-oxo-4-propyl-2H-chromen-7-yl propionate]	19.4	38.8	120 to 121	–	–	–	–
CCCc1c(Cc2ccccc2)c(=O)oc2cc(OC(=O)c3ccccc3)ccc12 [Compound 65, 3-Benzyl-2-oxo-4-propyl-2H-chromen-7-yl benzoate]	32.6	37.1	120	–	–	–	–
Cc1c(Cc2ccccc2)c(=O)oc2cc(O)c(Cl)cc12 [Compound 4c, 3-Benzyl-6-chloro-7-hydroxy-4-methyl-2H-chromen-2-one]	15.8	5.1	–	–	–	–	–
CCCCC(=O)Oc1ccc2c(CCC)c(Cc3ccccc3)c(=O)oc2c1 [Compound 51, 3-Benzyl-2-oxo-4-propyl-2H-chromen-7-yl pentanoate]	29.5	42.5	78 to 79	–	–	–	–
CCc1c(Cc2ccc(F)cc2)c(=O)oc2cc(OC(=O)N(CC)CC)ccc12 [Compound 25, 4-Ethyl-3-(4-fluorobenzyl)-2-oxo-2H-chromen-7-yl diethylcarbamate]	25.9	59.2	74 to 75	active	–	–	–
CCc1c(Cc2ccc(F)cc2)c(=O)oc2cc(OS(=O)(=O)c3ccc(C)cc3)ccc12 [Compound 80, 4-Ethyl-3-(4-fluorobenzyl)-2-oxo-2H-chromen-7-yl 4-methylbenzenesulfonate]	33.1	16.5	–	inactive	–	–	–
CCCc1c(Cc2ccc(F)cc2)c(=O)oc2cc(OC(=O)c3ccccc3)ccc12 [Compound 68, 3-(4-Fluorobenzyl)-2-oxo-4-propyl-2H-chromen-7-yl benzoate]	26.1	45.6	95 to 96	–	–	–	–
CCc1c(Cc2ccccc2)c(=O)oc2cc(OC(=O)c3ccccc3)ccc12 [Compound 64, 3-Benzyl-4-ethyl-2-oxo-2H-chromen-7-yl benzoate]	10.1	21.5	138	–	–	–	–
Cc1c(Cc2ccccc2)c(=O)oc2cc(O)ccc12 [Compound 4b, 3-Benzyl-7-hydroxy-4-methyl-2H-chromen-2-one]	-0.81	-6.03	–	–	–	–	–
Cc1c(Cc2ccc(F)cc2)c(=O)oc2cc(OS(=O)(=O)c3ccccc3)ccc12 [Compound 74, 3-(4-Fluorobenzyl)-4-methyl-2-oxo-2H-chromen-7-yl benzenesulfonate]	21.4	17	–	–	–	–	–
Cc1c(Cc2ccccc2)c(=O)oc2cc(OS(=O)(=O)c3ccccc3)ccc12 [Compound 69, 3-Benzyl-4-methyl-2-oxo-2H-chromen-7-yl benzenesulfonate]	-11.3	2.32	–	–	–	–	–
Cc1c(Cc2ccccc2)c(=O)oc2cc(OS(=O)(=O)c3ccccc3)c(Cl)cc12 [Compound 70, 3-Benzyl-6-chloro-4-methyl-2-oxo-2H-chromen-7-yl benzenesulfonate]	29.9	24.5	–	–	–	–	–
CN(C)C(=O)Oc1ccc2cc(Cc3ccccc3)c(=O)oc2c1 [Compound 12, 3-benzyl-7-N,N-dimethylcarbamoyloxyl-2H-chromen-2-one]	31.6	25.6	–	disappearance of affinity	–	–	–
O=C(c1ccccc1)c1cc2ccc(O)cc2oc1=O [Compound 85, 3-Benzoyl-7-hydroxycoumarin]	23	20.5	–	–	–	–	–
CCc1c(Cc2ccc(F)cc2)c(=O)oc2cc(OS(=O)(=O)c3ccccc3)ccc12 [Compound 73, 4-Ethyl-3-(4-fluorobenzyl)-2-oxo-2H-chromen-7-yl benzenesulfonate]	16.6	7.4	–	inactive	–	–	–
CCc1c(Cc2ccccc2)c(=O)oc2cc(OS(=O)(=O)c3ccccc3)ccc12 [Compound 71, 3-Benzyl-4-ethyl-2-oxo-2H-chromen-7-yl benzenesulfonate]	31.1	-2.35	–	–	–	–	–
CCCc1c(Cc2ccccc2)c(=O)oc2cc(OS(=O)(=O)c3ccccc3)ccc12 [Compound 72, 3-Benzyl-2-oxo-4-propyl-2H-chromen-7-yl benzenesulfonate]	26	14	–	–	–	–	–
CCCc1c(Cc2ccc(F)cc2)c(=O)oc2cc(OS(=O)(=O)c3ccccc3)ccc12 [Compound 75, 3-(4-Fluorobenzyl)-2-oxo-4-propyl-2H-chromen-7-yl benzenesulfonate]	21.6	13.8	–	–	–	–	–
Cn1cnc2c(F)c(Nc3ccc(Br)cc3Cl)c(C(=O)NOCCO)cc21 [AZD6244, reference compound]	–	–	–	–	–	–	100
N#Cc1c(C(=O)c2ccccc2)c(=O)oc2cc(O)ccc12 [Compound 87, 3-Benzoyl-4-cyano-7-hydroxycoumarin]	31.9	30	–	–	–	–	–
CCc1c(Cc2ccccc2)c(=O)oc2cc(OS(=O)(=O)c3ccc(C)cc3)ccc12 [Compound 78, 3-Benzyl-4-ethyl-2-oxo-2H-chromen-7-yl 4-methylbenzenesulfonate]	33.2	4.76	–	–	–	–	–
CCCc1c(Cc2ccccc2)c(=O)oc2cc(OS(=O)(=O)c3ccc(C)cc3)ccc12 [Compound 79, 3-Benzyl-2-oxo-4-propyl-2H-chromen-7-yl 4-methylbenzenesulfonate]	24.6	11.7	–	–	–	–	–

From paper PMC6269873, “Substituted 3-Benzylcoumarins as Allosteric MEK1 Inhibitors: Design, Synthesis and Biological Evaluation as Antiviral Agents” (Molecules, 2013)
